Source: US10106558B2, “Azolobenzazine compounds, compositions comprising these compounds and their use for controlling invertebrate pests” (BASF SE, priority 2015, dated 2018)
Read-outs that look alike come from different tables or passages of the source.

Assays:
Type in all cases: in vivo
[1] = test system: boll weevil (Anthonomus grandis); assay: Action on boll weevil, eggs on insect diet in 96-well microtiter plates; conditions: 120 h, read-out: mortality in comparison with untreated controls
Protocol: Example B3: Action on Boll Weevil (Anthonomus grandis)
For evaluating control of boll weevil (Anthonomus grandis) the test unit consisted of 96-well-microtiter plates containing an insect diet and 5-10 A. grandis eggs.
(§1) The compounds were formulated using a solution containing 75% v/v water and 25% v/v DMSO. Different concentrations of formulated compounds were sprayed onto the insect diet at 5 μl, using a custom built micro atomizer, at two replications.
After application, microtiter plates were incubated at about 25±1° C. and about 75±5% relative humidity for 5 days. Egg and larval mortality was then visually assessed.

[2] = test system: green peach aphid (Myzus persicae) (mixed life stages); assay: Action on green peach aphid, liquid artificial diet under artificial membrane; conditions: 72 h, read-out: mortality in comparison with untreated controls
Source text: Example B8: Action on Green Peach Aphid (Myzus persicae) (Mixed Life Stages)
For evaluating control of green peach aphid (Myzus persicae) through systemic means the test unit consisted of 96-well-microtiter plates containing liquid artificial diet under an artificial membrane.
The compounds were formulated using a solution containing 75% v/v water and 25% v/v DMSO. Different concentrations of formulated compounds were pipetted into the aphid diet, using a custom built pipetter, at two replications.
After application, 5-8 adult aphids were placed on the artificial membrane inside the microtiter plate wells. The aphids were then allowed to suck on the treated aphid diet and incubated at about 23±1° C. and about 50±5% relative humidity for 3 days. Aphid mortality and fecundity was then visually assessed.

[3] = test system: yellow fever mosquito (Aedes aegypti); assay: whole plant or invertebrate; conditions: 48 h, larval mortality visually assessed after 2 days, read-out: mortality in comparison with untreated controls
Protocol: Example B1: Action on Yellow Fever Mosquito (Aedes aegypti)
For evaluating control of yellow fever mosquito (Aedes aegypti) the test unit consisted of 96-well-microtiter plates containing 200 μl of tap water per well and 5-15 freshly hatched A. aegypti larvae.
The active compounds were formulated using a solution containing 75% (v/v) water and 25% (v/v) DMSO. Different concentrations of formulated compounds or mixtures were sprayed onto the insect diet at 2.5 μl, using a custom built micro atomizer, at two replications.
After application, microtiter plates were incubated at 28+1° C., 80+5% RH for 2 days. Larval mortality was then visually assessed.

[4] = test system: Diamond Back Moth (Plutella xylostella); assay: Action on diamond back moth, dipped cabbage leaves; conditions: 3rd instar larvae, 72 hours after treatment, read-out: mortality in comparison with untreated controls
Protocol: Example B9: Action on Diamond Back Moth (Plutella xylostella)
The active compound is dissolved at the desired concentration in a mixture of 1:1 (vol:vol) distilled water:acetone. Surfactant (Kinetic® HV) is added at a rate of 0.01% (vol/vol). The test solution is prepared at the day of use.
Leaves of cabbage were dipped in test solution and air-dried. Treated leaves were placed in petri dishes lined with moist filter paper and inoculated with ten 3rd instar larvae. Mortality was recorded 72 hours after treatment. Feeding damages were also recorded using a scale of 0-100%.

[5] = test system: Silverleaf Whitefly (Bemisia argentifolii) (Adults); assay: Action on silverleaf whitefly adults, sprayed cotton plants; conditions: 72 h, 3 days after treatment, read-out: mortality in comparison with untreated controls
Protocol: Example B4: Action on Silverleaf Whitefly (Bemisia argentifolii) (Adults)
The active compounds were formulated by a Tecan liquid handler in 100% cyclohexanone as a 10,000 ppm solution supplied in tubes. The 10,000 ppm solution was serially diluted in 100% cyclohexanone to make interim solutions. These served as stock solutions for which final dilutions were made by the Tecan in 50% acetone:50% water (v/v) into 5 or 10 ml glass vials. A nonionic surfactant (Kinetic®) was included in the solution at a volume of 0.01% (v/v). The vials were then inserted into an automated electrostatic sprayer equipped with an atomizing nozzle for application to plants/insects.
Cotton plants at the cotyledon stage (one plant per pot) were sprayed by an automated electrostatic plant sprayer equipped with an atomizing spray nozzle. The plants were dried in the sprayer fume hood and then removed from the sprayer. Each pot was placed into a plastic cup and about 10 to 12 whitefly adults (approximately 3-5 days old) were introduced. The insects were collected using an aspirator and a nontoxic Tygon® tubing connected to a barrier pipette tip. The tip, containing the collected insects, was then gently inserted into the soil containing the treated plant, allowing insects to crawl out of the tip to reach the foliage for feeding. Cups were covered with a reusable screened lid. Test plants were maintained in a growth room at about 25° C. and about 20-40% relative humidity for 3 days, avoiding direct exposure to fluorescent light (24 hour photoperiod) to prevent trapping of heat inside the cup. Mortality was assessed 3 days after treatment, compared to untreated control plants.

[6] = test system: tobacco budworm (Heliothis virescens); assay: Action on tobacco budworm, eggs on insect diet in 96-well microtiter plates; conditions: 120 h, egg and larval mortality visually assessed after 5 days, read-out: mortality in comparison with untreated controls
Protocol: Example B6: Action on Tobacco Budworm (Heliothis virescens)
For evaluating control of tobacco budworm (Heliothis virescens) the test unit consisted of 96-well-microtiter plates containing an insect diet and 15-25 H. virescens eggs.
The compounds were formulated using a solution containing 75% v/v water and 25% v/v DMSO. Different concentrations of formulated compounds were sprayed onto the insect diet at 10 μl, using a custom built micro atomizer, at two replications.
After application, microtiter plates were incubated at about 28±1° C. and about 80±5% relative humidity for 5 days. Egg and larval mortality was then visually assessed.

[7] = test system: Mediterranean fruitfly (Ceratitis capitata); assay: Action on Mediterranean fruitfly, eggs on insect diet in microtiter plates; conditions: 120 h, egg and larval mortality visually assessed after 5 days, read-out: mortality in comparison with untreated controls
Protocol: Example B5: Action on Mediterranean Fruitfly (Ceratitis capitata)
For evaluating control of Mediterranean fruitfly (Ceratitis capitata) the test unit consisted of microtiter plates containing an insect diet and 50-80 C. capitata eggs.
as §1
After application, microtiter plates were incubated at about […] and about 80+5% relative humidity for 5 days. Egg and larval mortality was then visually assessed.

[8] = test system: Orchid Thrips (Dichromothrips corbetti); assay: Action on orchid thrips, floral-immersion technique; conditions: adult thrips, 72 hours after treatment, read-out: mortality in comparison with untreated controls
Protocol: Example B2: Action on Orchid Thrips (Dichromothrips Corbetti)
Dichromothrips corbettiadults used for bioassay were obtained from a colony maintained continuously under laboratory conditions. For testing purposes, the test compound is diluted in a 1:1 mixture of acetone:water (vol:vol), plus Kinetic® HV at a rate of 0.01% v/v.
Thrips potency of each compound was evaluated by using a floral-immersion technique. All petals of individual, intact orchid flowers were dipped into treatment solution and allowed to dry in Petri dishes. Treated petals were placed into individual re-sealable plastic along with about 20 adult thrips. All test arenas were held under continuous light and a temperature of about 28° C. for duration of the assay. After 3 days, the numbers of live thrips were counted on each petal. The percent mortality was recorded 72 hours after treatment.

[9] = test system: Southern Armyworm (Spodoptera eridania), 2nd instar larvae; assay: Action on southern armyworm 2nd instar larvae, sprayed lima bean plants; conditions: 96 h, 4 days after treatment, read-out: mortality in comparison with untreated controls
Protocol: Example B10: Action on Southern Armyworm (Spodoptera eridania), 2nd Instar Larvae
The active compounds were formulated by a Tecan liquid handler in 100% cyclohexanone as a 10,000 ppm solution supplied in tubes. The 10,000 ppm solution was serially diluted in 100% cyclohexanone to make interim solutions. These served as stock solutions for which final dilutions were made by the Tecan in 50% acetone:50% water (v/v) into 10 or 20 ml glass vials. A nonionic surfactant (Kinetic®) was included in the solution at a volume of 0.01% (v/v). The vials were then inserted into an automated electrostatic sprayer equipped with an atomizing nozzle for application to plants/insects.
Lima bean plants (variety Sieva) were grown 2 plants to a pot and selected for treatment at the 1st true leaf stage. Test solutions were sprayed onto the foliage by an automated electrostatic plant sprayer equipped with an atomizing spray nozzle. The plants were dried in the sprayer fume hood and then removed from the sprayer. Each pot was placed into perforated plastic bags with a zip closure. About 10 to 11 armyworm larvae were placed into the bag and the bags zipped closed. Test plants were maintained in a growth room at about 25° C. and about 20-40% relative humidity for 4 days, avoiding direct exposure to fluorescent light (24 hour photoperiod) to prevent trapping of heat inside the bags. Mortality and reduced feeding were assessed 4 days after treatment, compared to untreated control plants.

[10] = 800 ppm, egg and larval mortality visually assessed after 5 days
[11] = 800 ppm, adult aphids on treated aphid diet, 3 days

CC(OC(=O)Nc1ccc2c(ccc3c2ncn3-c2ccc(OC(F)(F)F)cc2)n1)c1ccc(Cl)cn1 (stereo not drawn) [Compound C-11, 1-(5-chloro-2-pyridyl)ethyl N-[3-[4-(trifluoromethoxy)phenyl]imidazo[4,5-f]quinolin-7-yl]carbamate]
≥ 75%: mortality at 800 ppm [1] | mortality at 800 ppm [2] | mortality at 800 ppm [3]

CC(C)c1ccccc1N1/C(=N/N=C/c2ccc3c(ccc4c3ncn4-c3ccc(OC(F)(F)F)cc3)n2)SCC1(C)O (stereo not drawn) [Compound C-9, (2Z)-3-(2-isopropylphenyl)-4-methyl-2-[(E)-[3-[4-(trifluoromethoxy)phenyl]imidazo[4,5-f]quinolin-7-yl]methylenehydrazono]thiazolidin-4-ol]
≥ 75%: mortality at 500 ppm [4] | mortality at 800 ppm [1, 10] | mortality at 500 ppm [5] | mortality at 800 ppm [6] | mortality at 800 ppm [2, 11] | mortality at 800 ppm [7] | mortality at 500 ppm [8] | mortality at 800 ppm [3] | mortality at 500 ppm [9]

Cc1cccc(C)c1N1CCS/C1=N/N=C/c1ccc2c(ccc3c2ncn3-c2ccc(OC(F)(F)F)cc2)n1 [Compound C-30, (E)-3-(2,6-dimethylphenyl)-N-[(E)-[3-[4-(trifluoromethoxy)phenyl]imidazo[4,5-f]quinolin-7-yl]methyleneamino]thiazolidin-2-imine]
≥ 75%: mortality at 500 ppm [4] | mortality at 800 ppm [1, 10] | mortality at 800 ppm [6] | mortality at 800 ppm [2, 11]

CC(C)c1ccccc1/N=C1\SCC(=O)N1/N=C/c1cnc2c(ccc3c2ncn3-c2ccc(OC(F)(F)F)cc2)c1 [Compound C-16, (2Z)-2-(2-isopropylphenyl)imino-3-[(E)-[3-[4-(trifluoromethoxy)phenyl]imidazo[4,5-h]quinolin-7-yl]methyleneamino]thiazolidin-4-one]
≥ 75%: mortality at 500 ppm [4] | mortality at 800 ppm [1, 10] | mortality at 500 ppm [5] | mortality at 800 ppm [6] | mortality at 800 ppm [7] | mortality at 500 ppm [8] | mortality at 800 ppm [3] | mortality at 500 ppm [9]

Cc1ccc(C(C)C)c(NC(=S)N/N=C/c2ccc3c(ccc4c3ncn4-c3ccc(OC(F)(F)F)cc3)n2)c1 [Compound C-5, 1-(2-isopropyl-5-methyl-phenyl)-3-[(E)-[3-[4-(trifluoromethoxy)phenyl]imidazo[4,5-f]quinolin-7-yl]methyleneamino]thiourea]
≥ 75%: mortality at 500 ppm [4] | mortality at 800 ppm [1, 10] | mortality at 800 ppm [6] | mortality at 800 ppm [2, 11] | mortality at 800 ppm [7] | mortality at 500 ppm [8] | mortality at 800 ppm [3] | mortality at 500 ppm [9]

CC(C)c1ccccc1/N=C1\SCC(=O)N1/N=C/c1ccc2c(ccc3c2ncn3-c2ccc(OC(F)(F)F)cc2)n1 [Compound C-8, (2Z)-2-(2-isopropylphenyl)imino-3-[(E)-[3-[4-(trifluoromethoxy)phenyl]imidazo[4,5-f]quinolin-7-yl]methyleneamino]thiazolidin-4-one]
≥ 75%: mortality at 500 ppm [4] | mortality at 800 ppm [1, 10] | mortality at 500 ppm [5] | mortality at 800 ppm [6] | mortality at 800 ppm [7] | mortality at 500 ppm [8] | mortality at 800 ppm [3] | mortality at 500 ppm [9]

CC(C)c1ccccc1N1C(=O)CS/C1=N\N=C\c1ccc2c(ccc3c2ncn3-c2ccc(OC(F)(F)F)cc2)n1 [Compound C-4, (2Z)-3-(2-isopropylphenyl)-2-[(E)-[3-[4-(trifluoromethoxy)phenyl]imidazo[4,5-f]quinolin-7-yl]methylenehydrazono]thiazolidin-4-one]
≥ 75%: mortality at 500 ppm [4] | mortality at 800 ppm [1, 10] | mortality at 500 ppm [5] | mortality at 800 ppm [6] | mortality at 800 ppm [7] | mortality at 500 ppm [8] | mortality at 800 ppm [3] | mortality at 500 ppm [9]
